Test results from the supplement of paper PMC10307832.

Tests used:
Experiment in all cases: relative viability (nuclei count vs DMSO), 5 days (fraction); higher = more cells survive
ALW-II-49-7 = compound: Cc1ccc(C(=O)Nc2cccc(C(F)(F)F)c2)cc1Nc1cncc(C(N)=O)c1 [ALW-II-49-7]
In short: (§1)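 Lung cancer cell lines were seeded into 1536-well plates, kept overnight at 37 °C and pinned with five library-drug doses (not always all listed) spaced by √10. After 5 days, nuclei were Hoechst-stained, imaged at 4× and counted with MetaXpress. Viability is treated-well nuclei over vehicle-well nuclei, taken as a median across plates. Plates needed control CV below 25% and at least one doubling.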

Dasatinib = compound: Cc1nc(Nc2ncc(C(=O)Nc3c(C)cccc3Cl)s2)cc(N2CCN(CCO)CC2)n1 [Dasatinib]
In short: as §1

XMD13-2 = compound: C1CC1C(=O)NC2=NNC3=C2C=CC(=C3)C4=CC(=CC=C4)C(=O)NC5CC5 [XMD13-2]
In short: as §1

Row | Cell Line | relative viability (ALW-II-49-7; 0.08 µM) | relative viability (ALW-II-49-7; 0.253 µM) | relative viability (ALW-II-49-7; 0.8 µM) | relative viability (ALW-II-49-7; 2.53 µM) | relative viability (ALW-II-49-7; 8 µM) | relative viability (Dasatinib; 0.005 µM) | relative viability (Dasatinib; 0.01581 µM) | relative viability (Dasatinib; 0.05 µM) | relative viability (Dasatinib; 0.075 µM, anchor plate) | relative viability (Dasatinib; 0.1581 µM) | relative viability (Dasatinib; 0.5 µM) | relative viability (XMD13-2; 0.05 µM) | relative viability (XMD13-2; 0.1581 µM) | relative viability (XMD13-2; 0.5 µM) | relative viability (XMD13-2; 1.581 µM) | relative viability (XMD13-2; 5 µM)
1 | 201T | 0.979 | 1.04 | 0.915 | 1.02 | 0.838 | 0.991 | 0.766 | 0.82 | 0.583 | 0.602 | 0.417 | 1.02 | 1.03 | 1.02 | 1 | 1.02
2 | A549 | 1.08 | 0.966 | 0.891 | 1.02 | 0.947 | 0.989 | 0.85 | 0.914 | – | 0.626 | 0.346 | 1.28 | 1.02 | 1.06 | 0.963 | 0.962
3 | A-427 | 0.962 | 1.02 | 0.952 | 1.01 | 0.93 | 0.983 | 0.889 | 0.811 | 0.698 | 0.634 | 0.623 | 1.12 | 0.921 | 1.01 | 0.904 | 0.744
4 | ABC-1 | 0.938 | 0.999 | 0.923 | 0.973 | 0.941 | 0.905 | 0.862 | 0.785 | 0.641 | 0.564 | 0.654 | 1.02 | 0.873 | 1.01 | 0.745 | 0.472
5 | BEN | 1.04 | 1.01 | 0.728 | 0.825 | 0.902 | 0.776 | 0.552 | 0.487 | 0.322 | 0.423 | 0.376 | 1.07 | 1.01 | 0.992 | 0.874 | 0.933
6 | CAL-12T | 0.952 | 0.96 | 1.03 | 1.02 | 0.928 | 1.02 | 0.998 | 1.12 | 0.486 | 0.795 | 0.416 | 1.05 | 0.961 | 1.06 | 0.887 | 1.02
7 | COR-L23 | 1.05 | 0.969 | 0.904 | 0.892 | 1.02 | 1.01 | 0.852 | 0.923 | 0.477 | 0.614 | 0.519 | 1.21 | 0.993 | 1.11 | 0.969 | 0.986
8 | COR-L 105 | 0.822 | 1.05 | 0.968 | 0.942 | 0.893 | 0.847 | 0.692 | 0.625 | 0.386 | 0.39 | 0.326 | 1.25 | 1.08 | 0.911 | 0.947 | 0.858
9 | Calu-6 | 0.952 | 1.03 | 0.947 | 0.891 | 0.869 | 0.895 | 0.766 | 0.712 | – | 0.627 | 0.554 | 1.05 | 1.08 | 1.07 | 0.99 | 1.04
10 | ChaGo-K-1 | 1.03 | 0.96 | 0.909 | 0.974 | 1.01 | 0.967 | 0.976 | 0.897 | 0.597 | 0.859 | 0.686 | 1.02 | 0.99 | 1.04 | 1.03 | 0.93
11 | EBC-1 | 0.93 | 0.93 | 0.79 | 1 | 0.697 | 1.03 | 0.893 | 0.894 | – | 0.831 | 0.736 | 1.07 | 1.09 | 1 | 0.858 | 0.508
12 | EKVX | 1.06 | 0.953 | 0.968 | 0.91 | 0.974 | 0.932 | 0.879 | 0.807 | 0.605 | 0.68 | 0.176 | 1.08 | 0.915 | 0.969 | 0.923 | 1.07
13 | EMC-BAC-2 | 1.02 | 0.966 | 0.888 | 0.902 | 0.758 | 0.884 | 0.786 | 0.657 | 0.336 | 0.472 | 0.344 | 1.13 | 0.896 | 1.02 | 0.616 | 0.79
14 | EPLC-272H | 1.01 | 0.702 | 0.945 | 0.977 | 0.86 | 0.965 | 0.916 | 0.882 | 0.356 | 0.71 | 0.295 | 1.18 | 0.882 | 1.16 | 0.738 | 0.646
15 | H3255 | 1.12 | 0.999 | 1.04 | 0.904 | 0.808 | 0.971 | 1 | 0.881 | 0.402 | 0.812 | 0.433 | 1.18 | 0.949 | 0.95 | 0.892 | 0.895
16 | HARA | 0.87 | 0.777 | 0.987 | 1.17 | 0.846 | 0.797 | 0.73 | 0.647 | 0.288 | 0.3 | 0.175 | 1.13 | 0.95 | 0.963 | 0.943 | 1.12
17 | HCC-15 | 1.04 | 0.975 | 0.964 | 1.08 | 0.919 | 1.03 | 0.991 | 0.928 | 0.651 | 0.854 | 0.726 | 1.11 | 0.931 | 1.01 | 0.98 | 0.904
18 | HCC-44 | 0.971 | 1.06 | 0.969 | 1.03 | 0.957 | 1.12 | 0.994 | 1.04 | – | 0.961 | 0.533 | 0.988 | 0.996 | 1.05 | 0.978 | 1.03
19 | HCC-78 | 0.972 | 0.938 | 0.842 | 0.934 | 0.933 | 0.551 | 0.764 | 0.721 | 0.408 | 0.658 | 0.314 | 1.06 | 0.934 | 0.981 | 0.908 | 0.962
20 | HCC-366 | 1.03 | 1.05 | 1.09 | 1.04 | 0.855 | 0.805 | 0.748 | 0.608 | 0.682 | 0.728 | 0.52 | 1.08 | 0.918 | 0.991 | 0.979 | 1.03
21 | HCC-827 | 1.02 | 1.03 | 1.02 | 1.02 | 1.02 | 1.05 | 0.926 | 1.04 | 0.324 | 0.953 | 0.126 | 1.06 | 1.01 | 1.02 | 0.973 | 0.944
22 | HOP-62 | 1.1 | 1.03 | 0.941 | 0.82 | 0.786 | 1.06 | 1 | 0.932 | 0.68 | 0.945 | 0.367 | 1.04 | 0.955 | 1.1 | 0.953 | 1.02
